Source: patent US11065249B2, “Diacylglycerol acyl transferase 2 inhibitor” (Pfizer Inc., priority 2019, dated 2021)
Converted amounts (≈) assume the structure as drawn.

Legend:
[1] = system: Western diet fed Sprague-Dawley rats; assay: Rat western diet model: in vivo effects on plasma and hepatic triglyceride levels; details: oral twice daily 3-100 mg/kg, compared with chow-fed vehicle animals
From the text: The rat western diet model was utilized to assess the effects of DGAT2 inhibitor treatment on plasma triglyceride production and hepatic triglyceride content in vivo. Male Sprague-Dawley rats were housed under standard laboratory conditions on a 12-hour light, 12-hour dark cycle (lights on at 06:00). Two weeks prior to study start animals were placed on a high-fat, high sucrose, high-cholesterol diet (D12079b, provided by Research Diets, New Brunswick, N.J.). This diet provides ˜43% of kilocalories from carbohydrate and ˜41% of kilocalories from fat. Example 4 was administered orally as a solution (10 mL/kg dosing volume) in 0.5% methylcellulose in deionized water, pH 7.0-7.5 (methylcellulose was obtained from Sigma-Aldrich, St. Louis, Mo.). […] Plasma TG levels were determined using a Roche Hitachi Chemistry analyzer according to the manufacturer's instructions (Roche Diagnostics Corporation, Indianapolis, Ind.) and data was analyzed using GraphPad Prism (GraphPad Software, Inc., La Jolla, Calif.). […] The triglyceride assay was performed through absorbance and reported as milligrams per deciliter. […]
FIG. 4 plots the multiple dose effects of Example 4 on Plasma Triglyceride in Western Diet Fed Sprague-Dawley Rats where plasma triglyceride levels were determined from blood drawn from the lateral tail vein 2-hours following the final dose of Example 4. […]

[2] = Determination of pKa (capillary electrophoresis, Analiza); type: physicochemical; details: most basic pKa, mean
[3] = Intrinsic clearance in human hepatocytes (relay method); type: in vitro ADME; details: cryopreserved human hepatocytes (suspension), relay hepatocyte assay, 1 μM test compound, mean +/− Std Dev
Method: Cryopreserved human hepatocytes (Lot DCM from BioreclamationIVT) were used. […] At time 0 and 4 h, 25 μL of hepatocyte suspension was removed from the incubation and added to 50 μL of ice-cold acetonitrile (containing metoprolol, indomethacin, and terfenadine as internal standards) to quench the reaction. The samples were centrifuged (Eppendorf, Hauppauge, N.Y.) at 3000 rpm (1439×g) for 10 min at room temperature, and 50 μL of supernatant was transferred to a clean plate, dried completely, and reconstituted before liquid chromatography/tandem mass spectrometry (LC-MS/MS) analysis. The remaining hepatocyte suspensions in the incubation plate were centrifuged (3000 rpm, 1439×g, 10 min, room temperature). The supernatant of 300 μL was transferred to a clean 24-well plate and stored at −80° C. until the next relay experiment. For the second relay experiment, the supernatant plates were warmed first to room temperature for 30 minutes, then to 37° C. for 30 min, and hepatocytes were added to the samples to give a final cell density of 0.5 million cells/mL. The plates were incubated at 37° C. for 4 h, sampled, and processed as described above. Five relays were performed to give a total incubation time of 20 h, with sampling points at (0, 4, 8, 12, 16 and 20 h). The concentrations of test compound determined at each time point by the LC-MS/MS analysis were used to calculate the intrinsic clearance.

[4] = High throughput determination of intrinsic clearance in human hepatocytes; type: in vitro ADME; details: human, pooled cryopreserved human hepatocytes (suspension), high throughput human hepatocyte assay, 1 μM test compound; mean +/− Std Dev
Method: The incubation was carried out at 37° C. […] The samples were centrifuged (Eppendorf, Hauppauge, N.Y.) at 3000 rpm for 5 min at 4° C.

[5] = Intrinsic clearance in human liver microsomes; type: in vitro ADME; details: human, pooled human liver microsomes, pH 7.4, human liver microsome assay, 1 μM test compound; mean +/− STD Dev
Method: The incubations were conducted at 37° C. […] (Sorvall R C 3C Plus, Thermo Scientific, Waltham, Mass.).

[6] = Thermodynamic solubility in various biorelevant media (PBS, SGN, FaSSIF, FeSSIF); type: physicochemical; details: 25 °C, thermodynamic from solid
Method: The solubility of active pharmaceutical ingredients is an important characteristic in determining biological performance and ease of formulation during drug development, with high solubility being preferred (Klein, S. 2010, The AAPS Journal, 12, 397-406; Di, L., et al 2012, Drug Disc. Today, 17.486-495). A test sample of crystalline solid (˜7 mg) was combined in a vial with 1 mL of the relevant buffer solution and the mixture vortexed to combine. If the solid dissolved completely, additional solid was added with vortexing until a saturated solution was obtained. The saturated solution/solid mixture was capped and subjected to temperature cycling as follows: 1 min at 25° C.; 8 h at 40° C.; 5 h at 15° C. and 12 h at 25° C. The mixture was filtered in a centrifugal filtration device (0.22 μm PVDF filter, MilliporeSigma, Milwaukee, Wis.) at 13,000 rpm and the concentration of the test compound in the filtrate was determined by HPLC/UPLC with reference to a three point standard curve. Phosphate buffered saline (PBS, pH 6.8, 50 mM phosphate buffer, 250 mM NaCl). Simulated gastric fluid (SGN pH 1.2, USP recipe). Fasted state simulated intestinal fluid (FaSSIF, 3 mM sodium taurocholate, 0.75 mM phospholipid from soybean lecithin, 50 mM phosphate buffer, ionic strength adjusted to 250 mM with NaCl, pH 6.8) and fed state simulated intestinal fluid (FeSSIF, 15 mM sodium taurocholate, 3.75 mM phospholipid from soybean lecithin, 144 mM acetic acid, 50 mM phosphate buffer, ionic strength adjusted to 250 mM with NaCl, pH 6.8).

pKa [2]: 7.5
hepatocyte CLint at 1 μM [3]: 0.98 µL/min/1e6 cells
hepatocyte CLint at 1 μM [4]: < 1.8 µL/min/1e6 cells
microsomal CLint at 1 μM [5]: < 7 µL/min/mg
solubility at 25 h ([6]; fasted state simulated intestinal fluid (FaSSIF), FaSSIF pH 6.8): 955 µg/mL (≈ 2180 µM)
solubility at 25 h ([6]; phosphate buffered saline, aqueous buffer, PBS, pH 6.8): 580 µg/mL (≈ 1320 µM)
solubility at 25 h ([6]; simulated gastric fluid, SGN pH 1.2): > 27000 µg/mL
Structure (SMILES): CCOc1cccnc1Oc1cncc(-c2ncc(C(=O)N[C@@H]3CNC[C@@H](F)C3)cn2)c1 [Example 4, 2-{5-[(3-Ethoxypyridin-2-yl)oxy]pyridin-3-yl}-N-[(3S,5S)-5-fluoropiperidin-3-yl]pyrimidine-5-carboxamide]
circulating triglyceride response, resulting levels [1]: approached those of the chow-fed vehicle animals
